Measurements: US8389557B2, “Triazole derivatives useful as Axl inhibitors” (Rigel Pharmaceuticals, Inc., priority 2005, dated 2013)

Target: T1, Axl (Homo sapiens, UniProt P30530)
T1 construct: endogenous in cells; host or cells: HeLa cells
T1 sequence (P30530 26-894): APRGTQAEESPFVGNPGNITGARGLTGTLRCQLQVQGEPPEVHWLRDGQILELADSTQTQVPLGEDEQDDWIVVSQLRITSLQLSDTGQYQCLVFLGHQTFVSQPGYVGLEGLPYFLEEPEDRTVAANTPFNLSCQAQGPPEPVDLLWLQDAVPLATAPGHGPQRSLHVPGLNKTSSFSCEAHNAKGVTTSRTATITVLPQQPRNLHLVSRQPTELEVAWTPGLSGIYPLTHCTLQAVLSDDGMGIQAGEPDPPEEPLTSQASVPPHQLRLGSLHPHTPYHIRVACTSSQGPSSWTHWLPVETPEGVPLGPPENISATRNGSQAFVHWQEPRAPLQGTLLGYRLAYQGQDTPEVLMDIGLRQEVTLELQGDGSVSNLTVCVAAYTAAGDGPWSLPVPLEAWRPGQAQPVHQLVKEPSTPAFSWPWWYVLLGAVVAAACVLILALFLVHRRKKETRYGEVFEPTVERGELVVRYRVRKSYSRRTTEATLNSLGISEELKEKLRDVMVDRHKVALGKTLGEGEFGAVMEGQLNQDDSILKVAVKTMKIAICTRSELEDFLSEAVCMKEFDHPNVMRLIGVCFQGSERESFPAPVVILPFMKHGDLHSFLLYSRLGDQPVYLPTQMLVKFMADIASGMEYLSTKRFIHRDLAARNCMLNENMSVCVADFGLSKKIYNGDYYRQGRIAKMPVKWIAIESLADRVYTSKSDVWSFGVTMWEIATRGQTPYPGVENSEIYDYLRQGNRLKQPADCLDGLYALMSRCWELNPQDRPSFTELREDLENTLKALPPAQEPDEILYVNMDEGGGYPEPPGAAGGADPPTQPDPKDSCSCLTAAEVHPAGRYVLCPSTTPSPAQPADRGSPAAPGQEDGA
Test: Phospho-Akt in-cell Western assay (inhibition of Axl activity)
Type: cell-based
Summary of the method: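 HeLa cells on poly-L-lysine, starved 24 h in 0.5% FCS DMEM with Axl/Fc 500 ng/mL, pre-treated with compound 1 h at 37° C. Axl stimulated 5 min by anti-Axl/anti-mouse antibody cross-linking. Fixed cells probed with anti-phospho-Akt and HRP secondary, chemiluminescence read.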

[1] = Table 3, Hela cells, Axl antibody cross-linking stimulation, phospho-Akt chemiluminescence
[2] = inhibition of Axl activity, phospho-Akt in-cell Western assay, Table 1
[3] = Table 7, Hela cells, Axl antibody cross-linking stimulation, phospho-Akt chemiluminescence
[4] = Table 6, Hela cells, Axl antibody cross-linking stimulation, phospho-Akt chemiluminescence
[5] = Table 5, Hela cells, Axl antibody cross-linking stimulation, phospho-Akt chemiluminescence

Structure (SMILES) | IC50 [2] | further results
COc1cc(Nc2nc(N)n(C(=O)c3ccc4cc[nH]c4c3)n2)ccc1OCCN1CCCC1 [compound 318, 5-amino-1-(1H-indol-6-yl)carbonyl-3-[3-methoxy-4-[2-(pyrrolidin-1-yl)ethoxy]phenylamino]-1H-1,2,4-triazole] |  | IC50 [1]: < 1 µM
COc1cc(Nc2nc(N)n(C(=O)c3ccc(-c4csnn4)cc3)n2)ccc1OCCN1CCCC1 [compound 319, 5-amino-1-(4-(1,2,3-thiadiazol-4-yl)phenyl)carbonyl-3-[3-methoxy-4-[2-(pyrrolidin-1-yl)ethoxy]phenylamino]-1H-1,2,4-triazole] | < 1 µM | 
CC(C)(C)c1ccc(C(=O)n2nc(Nc3ccc(OCCN4CCCCCC4)cc3)nc2N)cc1 [compound 320, 5-amino-1-(4-(tert-butyl)phenyl)carbonyl-3-[4-[2-(azepan-1-yl)ethoxy]phenylamino]-1H-1,2,4-triazole] | < 1 µM | 
CC(C)Oc1ccc(C(=O)n2nc(Nc3ccc(OCCN4CCCCCC4)cc3)nc2N)cc1 [compound 321, 5-amino-1-(4-(iso-propoxy)phenyl)carbonyl-3-[4-[2-(azepan-1-yl)ethoxy]phenylamino]-1H-1,2,4-triazole] | < 1 µM | 
CC(C)(C)Oc1ccc(C(=O)n2nc(Nc3ccc(OCCN4CCCCCC4)cc3)nc2N)cc1 [compound 322, 5-amino-1-(4-(tert-butoxy)phenyl)carbonyl-3-[4-[2-(azepan-1-yl)ethoxy]phenylamino]-1H-1,2,4-triazole] | < 1 µM | 
Nc1nc(Nc2ccc(OCCN3CCCCCC3)cc2)nn1C(=O)c1ccc2cc[nH]c2c1 [compound 323, 5-amino-1-(1H-indol-6-yl)carbonyl-3-[4-[2-(azepan-1-yl)ethoxy]phenylamino]-1H-1,2,4-triazole] |  | IC50 [1]: < 1 µM
Nc1nc(Nc2ccc(OCCN3CCCCCC3)cc2)nn1C(=O)c1ccc(-c2csnn2)cc1 [compound 324, 5-amino-1-(4-(1,2,3-thiadiazol-4-yl)phenyl)carbonyl-3-[4-[2-(azepan-1-yl)ethoxy]phenylamino]-1H-1,2,4-triazole] | < 1 µM | 
Nc1nc(Nc2ccc(OCCN3CCCC3)cc2)nn1C(=S)Nc1c(F)cc(F)cc1F [compound 325, 5-amino-N-(2,4,6-trifluorophenyl)-3-[4-[2-(pyrrolidin-1-yl)ethoxy]phenylamino]-1H-1,2,4-triazole-1-carbothioamide] |  | IC50 [3]: 1 to 10 µM
Nc1nc(Nc2ccc(OCCN3CCCC3)cc2)nn1C(=S)Nc1c(F)cccc1F [compound 326, 5-amino-N-(2,6-difluorophenyl)-3-[4-[2-(pyrrolidin-1-yl)ethoxy]phenylamino]-1H-1,2,4-triazole-1-carbothioamide] |  | IC50 [3]: < 1 µM
Nc1nc(Nc2ccc(OCCN3CCCC3)cc2)nn1C(=O)c1cccc(N2CCOCC2)c1 [compound 331, 5-amino-1-(3-(morpholin-4-yl)phenyl)carbonyl-3-[4-[2-(pyrrolidin-1-yl)ethoxy]phenylamino]-1H-1,2,4-triazole] | < 1 µM | 
Nc1nc(Nc2ccc(OCCN3CCCC3)cc2)nn1C(=O)c1ccc(OCCN2CCOCC2)cc1 [compound 332, 5-amino-1-[4-(2-(morpholin-4-yl)ethoxy)phenyl]carbonyl-3-[4-[2-(pyrrolidin-1-yl)ethoxy]phenylamino]-1H-1,2,4-triazole] | < 1 µM | 
CC(C)Oc1ccc(C(=O)n2nc(Nc3ccccc3)nc2N)cc1 [compound 333, 5-amino-1-(4-(iso-propoxy)phenyl)carbonyl-3-(phenylamino)-1H-1,2,4-triazole] | 1 to 10 µM | 
Nc1nc(Nc2ccccc2)nn1C(=O)c1ccc(-c2csnn2)cc1 [compound 334, 5-amino-1-(4-(1,2,3-thiadiazol-4-yl)phenyl)carbonyl-3-(phenylamino)-1H-1,2,4-triazole] | > 20 µM | 
Nc1nc(Nc2ccccc2)nn1C(=O)c1ccc(N2CCOCC2)cc1 [compound 335, 5-amino-1-(4-(morpholin-4-yl)phenyl)carbonyl-3-(phenylamino)-1H-1,2,4-triazole] | > 20 µM | 
Nc1nc(Nc2ccccc2)nn1C(=O)c1cccc(N2CCOCC2)c1 [compound 336, 5-amino-1-(3-(morpholin-4-yl)phenyl)carbonyl-3-(phenylamino)-1H-1,2,4-triazole] | 10 to 20 µM | 
CC(C)Oc1ccc(C(=O)n2nc(Nc3ccc(OCCN4CCCC4=O)cc3)nc2N)cc1 [compound 337, 5-amino-1-(4-(iso-propoxy)phenyl)carbonyl-3-[4-[2-(pyrrolidin-2-on-1-yl)ethoxy]phenylamino]-1H-1,2,4-triazole] | < 1 µM | 
Nc1nc(Nc2ccc(OCCN3CCCC3=O)cc2)nn1C(=O)c1ccc(-c2csnn2)cc1 [compound 338, 5-amino-1-(4-(1,2,3-thiadiazol-4-yl)phenyl)carbonyl-3-[4-[2-(pyrrolidin-2-on-1-yl)ethoxy]phenylamino]-1H-1,2,4-triazole] | 1 to 10 µM | 
Nc1nc(Nc2ccc(OCCN3CCCC3=O)cc2)nn1C(=O)c1ccc(N2CCOCC2)cc1 [compound 339, 5-amino-1-(4-(morpholin-4-yl)phenyl)carbonyl-3-[4-[2-(pyrrolidin-2-on-1-yl)ethoxy]phenylamino]-1H-1,2,4-triazole] | 1 to 10 µM | 
Nc1nc(Nc2ccc(OCCN3CCCC3=O)cc2)nn1C(=O)c1cccc(N2CCOCC2)c1 [compound 340, 5-amino-1-(3-(morpholin-4-yl)phenyl)carbonyl-3-[4-[2-(pyrrolidin-2-on-1-yl)ethoxy]phenylamino]-1H-1,2,4-triazole] | 1 to 10 µM | 
CC(C)(C)Oc1ccc(C(=O)n2nc(Nc3ccccc3)nc2N)cc1 [compound 341, 5-amino-1-(4-(tert-butoxy)phenyl)carbonyl-3-(phenylamino)-1H-1,2,4-triazole] | 1 to 10 µM | 
CC(C)(C)Oc1ccc(C(=O)n2nc(Nc3ccc(OCCN4CCCC4=O)cc3)nc2N)cc1 [compound 342, 5-amino-1-(4-(tert-butoxy)phenyl)carbonyl-3-[4-[2-(pyrrolidin-2-on-1-yl)ethoxy]phenylamino]-1H-1,2,4-triazole] | < 1 µM | 
COc1cc(Nc2nc(N)n(C(=O)c3ccc(N4CCOCC4)cc3)n2)ccc1OCCN1CCCC1 [compound 343, 5-amino-1-(4-(morpholin-4-yl)phenyl)carbonyl-3-[3-methoxy-4-[2-(pyrrolidin-1-yl)ethoxy]phenylamino]-1H-1,2,4-triazole] | < 1 µM | 
COc1cc(Nc2nc(N)n(C(=O)c3cccc(N4CCOCC4)c3)n2)ccc1OCCN1CCCC1 [compound 344, 5-amino-1-(3-(morpholin-4-yl)phenyl)carbonyl-3-[3-methoxy-4-[2-(pyrrolidin-1-yl)ethoxy]phenylamino]-1H-1,2,4-triazole] | < 1 µM | 
CC(C)(C)Oc1ccc(C(=O)n2nc(N)nc2NC2C3C=CC(C3)C2C(N)=O)cc1 (centres unmarked) [compound 345, 3-amino-1-(4-(tert-butoxy)phenyl)carbonyl-5-[(3-(aminocarbonyl)bicyclo[2.2.1]hept-5-en-2-yl)amino]-1H-1,2,4-triazole] |  | IC50 [4]: > 20 µM
CC(C)(C)Oc1ccc(C(=O)n2nc(NC3C4C=CC(C4)C3C(N)=O)nc2N)cc1 (centres unmarked) [compound 346, 5-amino-1-(4-(tert-butoxy)phenyl)carbonyl-3-[(5-(aminocarbonyl)bicyclo[2.2.1]hept-2-en-6-yl)amino]-1H-1,2,4-triazole] |  | IC50 [5]: > 20 µM
CC(C)(C)Oc1cccc(C(=O)n2nc(N)nc2NC2C3C=CC(C3)C2C(N)=O)c1 (centres unmarked) [compound 347, 3-amino-1-(3-(tert-butoxy)phenyl)carbonyl-5-[(3-(aminocarbonyl)bicyclo[2.2.1]hept-5-en-2-yl)amino]-1H-1,2,4-triazole] |  | IC50 [4]: > 20 µM
CC(C)(C)Oc1cccc(C(=O)n2nc(NC3C4C=CC(C4)C3C(N)=O)nc2N)c1 (centres unmarked) [compound 348, 5-amino-1-(3-(tert-butoxy)phenyl)carbonyl-3-[(5-(aminocarbonyl)bicyclo[2.2.1]hept-2-en-6-yl)amino]-1H-1,2,4-triazole] |  | IC50 [5]: > 20 µM
CN(C)c1ccc(C(=O)n2nc(N)nc2NC2C3C=CC(C3)C2C(N)=O)cc1 (centres unmarked) [compound 349, 3-amino-1-(4-(dimethylamino)phenyl)carbonyl-5-[(3-(aminocarbonyl)bicyclo[2.2.1]hept-5-en-2-yl)amino]-1H-1,2,4-triazole] |  | IC50 [4]: > 20 µM
CN(C)c1ccc(C(=O)n2nc(NC3C4C=CC(C4)C3C(N)=O)nc2N)cc1 (centres unmarked) [compound 350, 5-amino-1-(4-(dimethylamino)phenyl)carbonyl-3-[(5-(aminocarbonyl)bicyclo[2.2.1]hept-2-en-6-yl)amino]-1H-1,2,4-triazole] |  | IC50 [5]: > 20 µM
